One may read the GI50 as the concentration at which growth is held to half of that of the control. Low readings indicate greater sensitivity of the cells, high ones lower sensitivity of the cells.

The results in this text go back to ChEMBL document CHEMBL3108671, “Differential Induction of Cytoplasmic Vacuolization and Methuosis by Novel 2-Indolyl-Substituted Pyridinylpropenones” (2014).

Each structure is given as a SMILES string. Activity calls are given as the source filed them. The calls are words filed in the database; no cut-off is given here.

For assay [1], the system named is U-251. Put plainly: Induction of methuosis in human U251 cells assessed as detachment of vacuolated cells at 10 uM after 2 days by phase-contrast microscopic analysis. Format: functional, cell-based.
Assay [2] deals with U-251. Nature of the assay: Induction of methuosis in human U251 cells assessed as heavily vacuolated cells at 10 uM after 1 day by phase-contrast microscopic analysis. Format: functional, cell-based.
Assay [3] deals with U-251. Put plainly: Induction of methuosis in human U251 cells assessed as decrease in cell proliferation at 10 uM after 2 days by phase-contrast microscopic analysis. It is filed as functional, cell-based.
For assay [4], the system named is U-251. Put plainly: Growth inhibition of human U251 cells preincubated for 24 hrs followed by compound-washout measured at 48 hrs by sulforhodamine assay. Format: functional.
In assay [5] the test system is U-251. Put plainly: Induction of methuosis in human U251 cells assessed as loss of membrane integrity at 10 uM after 2 days by phase-contrast microscopic analysis. It is filed as functional, cell-based.
Assay [6] relates to U-251. Put plainly: Induction of methuosis in human U251 cells assessed as sparse cells at 10 uM after 1 day by phase-contrast microscopic analysis. Format: functional, cell-based.

For `CCCc1[nH]c2ccc(OC)cc2c1/C=C/C(=O)c1ccncc1`, the result in the assay with U-251 [1] and in the assay with U-251 [3] was inactive. Further, the result in the assay on U-251 [2] was Active. This compound also came in with a GI50 with U-251 [4] of 15.3 µM.
In the case of `COc1ccc2[nH]c(C)c(/C=C/C(=O)c3cccnc3)c2c1`, the result in the assay with U-251 [2] and in the assay with U-251 [3] was inactive. Moreover, growth in the assay on U-251 [4] was halved (GI50) at 16.9 µM.
Consider `COc1ccc2[nH]c(CC(C)C)c(/C=C/C(=O)c3ccncc3)c2c1`, for which the outcome with U-251 [1] and with U-251 [3] was inactive. Also, the outcome with U-251 [2] was Active. For the same compound, the GI50 with U-251 [4] is 16.6 µM.
Turning to `CCc1[nH]c2ccc(OC)cc2c1/C=C/C(=O)c1ccncc1`, the outcome in the assay on U-251 [5], in the assay on U-251 [1], with U-251 [2] and in the assay with U-251 [6] was Active. Further, the GI50 with U-251 [4] was 3.2 µM.
Consider `COc1ccc2[nH]cc(/C=C/C(=O)c3ccncc3)c2c1`, for which the result in the assay on U-251 [1] and in the assay with U-251 [3] was inactive. In addition, in the assay with U-251 [2], the result was Active. This compound returned a GI50 in the assay on U-251 [4] of 18.6 µM.
On to `COc1ccc2[nH]c(C(C)C)c(/C=C/C(=O)c3ccncc3)c2c1`, for which the outcome in the assay on U-251 [1] and with U-251 [3] was inactive. In the assay on U-251 [2], the outcome was Active. For the same compound, the concentration for 50% growth inhibition (GI50) with U-251 [4] is over 20 µM.
